Reference: patent US9539252B2, “Piperazine-substituted benzothiophene derivatives as antipsychotic agents” (OTSUKA PHARMACEUTICAL CO., LTD., priority 2011, dated 2017)

Experiment: Solubility in oil (sesame oil, benzyl benzoate), visual observation
Conditions: benzyl benzoate, oil or lipid, thermodynamic from solid

solubility, > 100 mg/mL:
CCCCN(CCCC)C(=O)OCn1c(=O)ccc2ccc(OCCCCN3CCN(c4cccc5sccc45)CC3)cc21 [Example 45, N,N-dibutylcarbamic acid 7-[4-(4-benzo[b]thiophen-4-ylpiperazin-1-yl)butoxy]-2-oxo-2H-quinolin-1-ylmethyl ester]
CNC(=O)OCN1C(=O)CCc2ccc(OCCCCN3CCN(c4cccc5sccc45)CC3)cc21 [Example 46, N-methylcarbamic acid 7-[4-(4-benzo[b]thiophen-4-ylpiperazin-1-yl)butoxy]-2-oxo-3,4-dihydro-2H-quinolin-1-ylmethyl ester]
CN(C)C(=O)OCN1C(=O)CCc2ccc(OCCCCN3CCN(c4cccc5sccc45)CC3)cc21 [Example 47, N,N-dimethylcarbamic acid 7-[4-(4-benzo[b]thiophen-4-ylpiperazin-1-yl)butoxy]-2-oxo-3,4-dihydro-2H-quinolin-1-ylmethyl ester]
CCCCCCCCCCCCCCCCCC(=O)OCN1C(=O)CCc2ccc(OCCCCN3CCN(c4cccc5sccc45)CC3)cc21 [Example 48, octadecanoic acid 7-[4-(4-benzo[b]thiophen-4-ylpiperazin-1-yl)butoxy]-2-oxo-3,4-dihydro-2H-quinolin-1-ylmethyl ester]
CCOC(=O)OCN1C(=O)CCc2ccc(OCCCCN3CCN(c4cccc5sccc45)CC3)cc21 [Example 49, carbonic acid 7-[4-(4-benzo[b]thiophen-4-ylpiperazin-1-yl)butoxy]-2-oxo-3,4-dihydro-2H-quinolin-1-ylmethyl ester ethyl ester]
CCOC(=O)OCn1c(=O)ccc2ccc(OCCCCN3CCN(c4cccc5sccc45)CC3)cc21 [Example 50, carbonic acid 7-[4-(4-benzo[b]thiophen-4-ylpiperazin-1-yl)butoxy]-2-oxo-2H-quinolin-1-ylmethyl ester ethyl ester]
CCNC(=O)OCN1C(=O)CCc2ccc(OCCCCN3CCN(c4cccc5sccc45)CC3)cc21 [Example 51, N-ethylcarbamic acid 7-[4-(4-benzo[b]thiophen-4-ylpiperazin-1-yl)butoxy]-2-oxo-3,4-dihydro-2H-quinolin-1-ylmethyl ester]
CCN(CC)C(=O)OCN1C(=O)CCc2ccc(OCCCCN3CCN(c4cccc5sccc45)CC3)cc21 [Example 52, N,N-diethylcarbamic acid 7-[4-(4-benzo[b]thiophen-4-ylpiperazin-1-yl)butoxy]-2-oxo-3,4-dihydro-2H-quinolin-1-ylmethyl ester]
CNC(=O)OCn1c(=O)ccc2ccc(OCCCCN3CCN(c4cccc5sccc45)CC3)cc21 [Example 53, N-methylcarbamic acid 7-[4-(4-benzo[b]thiophen-4-ylpiperazin-1-yl)butoxy]-2-oxo-2H-quinolin-1-ylmethyl ester]
CCCCCC(CCCCC)C(=O)OCn1c(=O)ccc2ccc(OCCCCN3CCN(c4cccc5sccc45)CC3)cc21 [Example 54, 2-pentylheptanoic acid 7-[4-(4-benzo[b]thiophen-4-ylpiperazin-1-yl)butoxy]-2-oxo-2H-quinolin-1-ylmethyl ester]
CCNC(=O)OCn1c(=O)ccc2ccc(OCCCCN3CCN(c4cccc5sccc45)CC3)cc21 [Example 55, N-ethylcarbamic acid 7-[4-(4-benzo[b]thiophen-4-ylpiperazin-1-yl)butoxy]-2-oxo-2H-quinolin-1-ylmethyl ester]
CN(C)C(=O)OCn1c(=O)ccc2ccc(OCCCCN3CCN(c4cccc5sccc45)CC3)cc21 [Example 56, N,N-dimethylcarbamic acid 7-[4-(4-benzo[b]thiophen-4-ylpiperazin-1-yl)butoxy]-2-oxo-2H-quinolin-1-ylmethyl ester]
CCN(CC)C(=O)OCn1c(=O)ccc2ccc(OCCCCN3CCN(c4cccc5sccc45)CC3)cc21 [Example 57, N,N-diethylcarbamic acid 7-[4-(4-benzo[b]thiophen-4-ylpiperazin-1-yl)butoxy]-2-oxo-2H-quinolin-1-ylmethyl ester]
CCCCCC(=O)OCn1c(=O)ccc2ccc(OCCCCN3CCN(c4cccc5sccc45)CC3)cc21 [Example 58, hexanoic acid 7-[4-(4-benzo[b]thiophen-4-ylpiperazin-1-yl)butoxy]-2-oxo-2H-quinolin-1-ylmethyl ester]
CCCCCCCCCC(=O)OCn1c(=O)ccc2ccc(OCCCCN3CCN(c4cccc5sccc45)CC3)cc21 [Example 59, decanoic acid 7-[4-(4-benzo[b]thiophen-4-ylpiperazin-1-yl)butoxy]-2-oxo-2H-quinolin-1-ylmethyl ester]
CCCCCCCCCCCCCCCCCC(=O)OCn1c(=O)ccc2ccc(OCCCCN3CCN(c4cccc5sccc45)CC3)cc21 [Example 60, octadecanoic acid 7-[4-(4-benzo[b]thiophen-4-ylpiperazin-1-yl)butoxy]-2-oxo-2H-quinolin-1-ylmethyl ester]
CC(=O)OCn1c(=O)ccc2ccc(OCCCCN3CCN(c4cccc5sccc45)CC3)cc21 [Example 61, acetic acid 7-[4-(4-benzo[b]thiophen-4-ylpiperazin-1-yl)butoxy]-2-oxo-2H-quinolin-1-ylmethyl ester]
O=C(NCc1ccccc1)OCn1c(=O)ccc2ccc(OCCCCN3CCN(c4cccc5sccc45)CC3)cc21 [Example 62, N-benzylcarbamic acid 7-[4-(4-benzo[b]thiophen-4-ylpiperazin-1-yl)butoxy]-2-oxo-2H-quinolin-1-ylmethyl ester]
O=C(NCC1CCCCC1)OCn1c(=O)ccc2ccc(OCCCCN3CCN(c4cccc5sccc45)CC3)cc21 [Example 63, N-cyclohexylmethylcarbamic acid 7-[4-(4-benzo[b]thiophen-4-ylpiperazin-1-yl)butoxy]-2-oxo-2H-quinolin-1-ylmethyl ester]
COC(=O)CNC(=O)OCn1c(=O)ccc2ccc(OCCCCN3CCN(c4cccc5sccc45)CC3)cc21 [Example 64, {7-[4-(4-benzo[b]thiophen-4-ylpiperazin-1-yl)butoxy]-2-oxo-2H-quinolin-1-ylmethoxycarbonylamino}acetic acid methyl ester]
CCCCCCCCCCCCCC(=O)OCn1c(=O)ccc2ccc(OCCCCN3CCN(c4cccc5sccc45)CC3)cc21 [Example 65, tetradecanoic acid 7-[4-(4-benzo[b]thiophen-4-ylpiperazin-1-yl)butoxy]-2-oxo-2H-quinolin-1-ylmethyl ester]
O=C(OCn1c(=O)ccc2ccc(OCCCCN3CCN(c4cccc5sccc45)CC3)cc21)N1CCOCC1 [Example 67, morpholine-4-carboxylic acid 7-[4-(4-benzo[b]thiophen-4-ylpiperazin-1-yl)butoxy]-2-oxo-2H-quinolin-1-ylmethyl ester]
CCCCCCCCCC(=O)OCN1C(=O)CCc2ccc(OCCCCN3CCN(c4cccc5sccc45)CC3)cc21 [Example 68, decanoic acid 7-[4-(4-benzo[b]thiophen-4-ylpiperazin-1-yl)butoxy]-2-oxo-3,4-dihydro-2H-quinolin-1-ylmethyl ester]
O=C(NOCc1ccccc1)OCn1c(=O)ccc2ccc(OCCCCN3CCN(c4cccc5sccc45)CC3)cc21 [Example 69, 7-[4-(4-benzo[b]thiophen-4-ylpiperazin-1-yl)butoxy]-2-oxo-2H-quinolin-1-ylmethyl benzyloxycarbamate]
CCCCCC(=O)OCN1C(=O)CCc2ccc(OCCCCN3CCN(c4cccc5sccc45)CC3)cc21 [Example 70, hexanoic acid 7-[4-(4-benzo[b]thiophen-4-ylpiperazin-1-yl)butoxy]-2-oxo-3,4-dihydro-2H-quinolin-1-ylmethyl ester]
O=C(NC1CCCCC1)OCn1c(=O)ccc2ccc(OCCCCN3CCN(c4cccc5sccc45)CC3)cc21 [Example 71, N-cyclohexylcarbamic acid 7-[4-(4-benzo[b]thiophen-4-ylpiperazin-1-yl)butoxy]-2-oxo-2H-quinolin-1-ylmethyl ester]
COC(=O)OCN1C(=O)CCc2ccc(OCCCCN3CCN(c4cccc5sccc45)CC3)cc21 [Example 72, carbonic acid 7-[4-(4-benzo[b]thiophen-4-ylpiperazin-1-yl)butoxy]-2-oxo-3,4-dihydro-2H-quinolin-1-ylmethyl ester methyl ester]
COC(=O)CN(C)C(=O)OCn1c(=O)ccc2ccc(OCCCCN3CCN(c4cccc5sccc45)CC3)cc21 [Example 73, ({7-[4-(4-benzo[b]thiophen-4-ylpiperazin-1-yl)butoxy]-2-oxo-2H-quinolin-1-ylmethoxycarbonyl}methylamino)acetic acid methyl ester]
C=CCCCCCCCCC(=O)OCn1c(=O)ccc2ccc(OCCCCN3CCN(c4cccc5sccc45)CC3)cc21 [Example 74, undec-10-enoic acid 7-[4-(4-benzo[b]thiophen-4-ylpiperazin-1-yl)butoxy]-2-oxo-2H-quinolin-1-ylmethyl ester]
CCCCCCCCCCCCCCCCCCNC(=O)OCN1C(=O)CCc2ccc(OCCCCN3CCN(c4cccc5sccc45)CC3)cc21 [Example 75, N-octadecylcarbamic acid 7-[4-(4-benzo[b]thiophen-4-ylpiperazin-1-yl)butoxy]-2-oxo-3,4-dihydro-2H-quinolin-1-ylmethyl ester]
CCCCCCCCCCCCCCCNC(=O)OCN1C(=O)CCc2ccc(OCCCCN3CCN(c4cccc5sccc45)CC3)cc21 [Example 76, N-pentadecylcarbamic acid 7-[4-(4-benzo[b]thiophen-4-ylpiperazin-1-yl)butoxy]-2-oxo-3,4-dihydro-2H-quinolin-1-ylmethyl ester]
CCC(C)C(=O)OCN1C(=O)CCc2ccc(OCCCCN3CCN(c4cccc5sccc45)CC3)cc21 (centres unmarked) [Example 77, 2-methylbutyric acid 7-[4-(4-benzo[b]thiophen-4-ylpiperazin-1-yl)butoxy]-2-oxo-3,4-dihydro-2H-quinolin-1-ylmethyl ester]

Same assay, conditions: sesame oil, oil or lipid, thermodynamic from solid

solubility, > 100 mg/mL:
CCCCN(CCCC)C(=O)OCn1c(=O)ccc2ccc(OCCCCN3CCN(c4cccc5sccc45)CC3)cc21 [Example 45, N,N-dibutylcarbamic acid 7-[4-(4-benzo[b]thiophen-4-ylpiperazin-1-yl)butoxy]-2-oxo-2H-quinolin-1-ylmethyl ester]
CCN(CC)C(=O)OCN1C(=O)CCc2ccc(OCCCCN3CCN(c4cccc5sccc45)CC3)cc21 [Example 52, N,N-diethylcarbamic acid 7-[4-(4-benzo[b]thiophen-4-ylpiperazin-1-yl)butoxy]-2-oxo-3,4-dihydro-2H-quinolin-1-ylmethyl ester]
CCN(CC)C(=O)OCn1c(=O)ccc2ccc(OCCCCN3CCN(c4cccc5sccc45)CC3)cc21 [Example 57, N,N-diethylcarbamic acid 7-[4-(4-benzo[b]thiophen-4-ylpiperazin-1-yl)butoxy]-2-oxo-2H-quinolin-1-ylmethyl ester]
CCCCCCCCCCCCCCCCCC(=O)OCn1c(=O)ccc2ccc(OCCCCN3CCN(c4cccc5sccc45)CC3)cc21 [Example 60, octadecanoic acid 7-[4-(4-benzo[b]thiophen-4-ylpiperazin-1-yl)butoxy]-2-oxo-2H-quinolin-1-ylmethyl ester]
CCCCCCCCCCCCCCCCCCNC(=O)OCN1C(=O)CCc2ccc(OCCCCN3CCN(c4cccc5sccc45)CC3)cc21 [Example 75, N-octadecylcarbamic acid 7-[4-(4-benzo[b]thiophen-4-ylpiperazin-1-yl)butoxy]-2-oxo-3,4-dihydro-2H-quinolin-1-ylmethyl ester]
CCCCCCCCCCCCCCCNC(=O)OCN1C(=O)CCc2ccc(OCCCCN3CCN(c4cccc5sccc45)CC3)cc21 [Example 76, N-pentadecylcarbamic acid 7-[4-(4-benzo[b]thiophen-4-ylpiperazin-1-yl)butoxy]-2-oxo-3,4-dihydro-2H-quinolin-1-ylmethyl ester]
